Patent publication US20260285853A1, “COMPOUNDS AND METHODS FOR MODULATING SPLICING” (REMIX THERAPEUTICS INC., priority 2023, published 2026)

Tests used:
Assay type in all cases: cell-based
[1] = tested on: MYB mRNA; assay: Splicing RT-qPCR assay (THP), Table 2A; settings: Table 2A, THP; for AC50: MYB alternative junction (AJ) mRNA, read-out: MYB AJ (AC50, increase in alternative junction mRNA); for IC50: MYB canonical junction (CJ) mRNA, read-out: MYB CJ (IC50, decrease in canonical junction mRNA)
[2] = tested on: SH-SY5Y (human neuroblastoma) cells; assay: Cell viability, Cell Titer Glo 2.0 assay; settings: read-out: Viability SHSY5Y.3 GI50
Outline: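 SH-SY5Y neuroblastoma cells are exposed to test compounds for 72 hours at 37 °C and 5% CO2, with final DMSO held at 0.1%. Cell viability is then measured with the CellTiter-Glo 2.0 assay.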

[3] = tested on: MYB mRNA; assay: Gene panel canonical junction qPCR assay, decrease in CJ mRNA, Table 3; settings: decrease in CJ mRNA levels, canonical junction qPCR, gene panel
Outline: (§1)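 A673 cells were plated, left to adhere for 24 h, then dosed; K562 cells were plated in 96- or 384-well format and dosed directly. Both were incubated 24 h at 37 °C with an 11-point 3-fold series (top 10 uM final). Canonical junction mRNA was then read by cDNA synthesis and qPCR.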

[4] = tested on: HTT mRNA; assay: as above; settings: decrease in CJ mRNA levels, canonical junction qPCR, gene panel
Outline: as §1

[5] = tested on: HTT mRNA; assay: Splicing RT-qPCR assay (THP), Table 2A; settings: Table 2A, THP; for AC50: HTT alternative junction (AJ) mRNA, read-out: HTT AJ (AC50, increase in alternative junction mRNA); for IC50: HTT canonical junction (CJ) mRNA, read-out: HTT CJ (IC50, decrease in canonical junction mRNA)

| Structure (SMILES) | AC50 [1] [nM] | IC50 [1] [nM] | GI50 [2] [nM] | IC50 [3] [nM] | IC50 [4] [nM] | AC50 [5] [nM] | IC50 [5] [nM] |
| --- | --- | --- | --- | --- | --- | --- | --- |
| COc1nc2c(N3CCC(NC4CC4)CC3)ccc(C(=O)Nc3cc4cn(C)nc4cc3OC)c2o1 [Compound 679, 4-[4-(cyclopropylamino)-1-piperidyl]-2-methoxy-N-(6-methoxy-2-methyl-indazol-5-yl)-1,3-benzoxazole-7-carboxamide] | < 100 | 100 to 1000 | 1000 to 10000 | 100 to 1000 | 1000 to 10000 | 1000 to 10000 | 1000 to 10000 |
| COc1nc2c(N3CCC(NC4CC4)CC3)ccc(C(=O)Nc3cn4cc(C)nc(C)c4n3)c2o1 [Compound 680, 4-(4-(cyclopropylamino)-piperidin-1-yl)-N-(6,8-dimethylimidazo-[1,2-a]-pyrazin-2-yl)-2-methoxy-benzo[d]-oxazole-7-carboxamide] | 1000 to 10000 | 1000 to 10000 | > 10000 | 1000 to 10000 | > 10000 | > 10000 | > 10000 |
| COc1nc2c(C(=O)Nc3cc4cn(C)nc4cc3OC)ccc(N3CCC(NC4CC4)CC3)c2o1 [Compound 681, 7-[4-(cyclopropylamino)-1-piperidyl]-2-methoxy-N-(6-methoxy-2-methyl-indazol-5-yl)-1,3-benzoxazole-4-carboxamide] | < 100 | 100 to 1000 | 100 to 1000 | 100 to 1000 | 100 to 1000 | 100 to 1000 | 100 to 1000 |
| COc1nc2c(C(=O)Nc3cc(F)c4nn(C)cc4c3)ccc(N3C[C@H](C)N[C@@H](C)C3)c2o1 [Compound 682, 7-[(3S,5S)-3,5-dimethylpiperazin-1-yl]-N-(7-fluoro-2-methyl-indazol-5-yl)-2-methoxy-1,3-benzoxazole-4-carboxamide] | < 100 | < 100 | < 100 | < 100 | 100 to 1000 | 100 to 1000 | 100 to 1000 |
| CCNC1C(C)CN(c2ccc(C(=O)Nc3cn4cc(C)nc(C)c4n3)c3nn(C)cc23)CC1C (stereo not drawn) [Compound 686] | > 10000 | > 10000 | > 10000 | > 10000 | > 10000 | > 10000 | > 10000 |
| CCNC1C(C)CN(c2ccc(C(=O)Nc3cc4cn(C)nc4cc3OC)c3nn(C)cc23)CC1C (stereo not drawn) [Compound 687] | 1000 to 10000 | 1000 to 10000 | > 10000 | 1000 to 10000 | > 10000 | > 10000 | > 10000 |
| COc1cc2c(N3CCC(NC4CC4)CC3)ccc(C(=O)Nc3cn4cc(C)nc4c(F)c3OC)n2n1 [Compound 688, 4-[4-(cyclopropylamino)-1-piperidyl]-N-(8-fluoro-7-methoxy-2-methyl-imidazo[1,2-a]pyridin-6-yl)-2-methoxy-pyrazolo[1,5-a]pyridine-7-carboxamide] | < 100 | < 100 | < 100 | < 100 | < 100 | 100 to 1000 | < 100 |
| COc1cc2c(N3CCC(NC4CC4)CC3)ccc(C(=O)Nc3cc(F)c4nc(C)cn4c3)n2n1 [Compound 689, 4-[4-(cyclopropylamino)-1-piperidyl]-N-(8-fluoro-2-methyl-imidazo[1,2-a]pyridin-6-yl)-2-methoxy-pyrazolo[1,5-a]pyridine-7-carboxamide] | < 100 | < 100 | < 100 | < 100 | < 100 | 100 to 1000 | < 100 |
| COc1nc2c(C(=O)Nc3cc(F)c4nc(C)cn4c3)ccc(N3CCC(NC4CC4)CC3)c2o1 [Compound 690, 7-[4-(cyclopropylamino)-1-piperidyl]-N-(8-fluoro-2-methyl-imidazo[1,2-a]pyridin-6-yl)-2-methoxy-1,3-benzoxazole-4-carboxamide] | < 100 | < 100 | 100 to 1000 | < 100 | < 100 | 100 to 1000 | < 100 |
